Converted amounts (≈) assume the structure as drawn. Where two headings read alike, the source gives them in different places. Some results are limits rather than exact numbers.

Broadly, the MIC is the smallest concentration in the dilution series that meets the test's criterion for growth inhibition.

Format in all cases: cell-based
One assay has as its system E. coli ATCC 10596. Briefly: MIC by broth microdilution, E. coli. The settings on record: Escherichia coli, read-out: E. coli ATCC 10536 MIC. The method in brief: (§1)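 Overnight cultures diluted to ~5×10^5 cfu/mL final; S. aureus in TSB and CAMHB, E. coli in LB and CAMHB, zinc sulphate to 50 μM final as required; two-fold serial dilutions. MIC = lowest concentration with no growth by OD600 after 24 h, 37° C, 200 rpm. MBC by Miles-Misra drop-plate viability count.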
(In general: Broth dilution looks for growth in wells or tubes with falling amounts of substance.)

For another assay, the system named is S. uberis ATCC 19436. The assay is described as follows: MIC by broth microdilution, S. uberis. The settings on record: Streptococcus uberis, read-out: S. uberis ATCC 19436 MIC. The method in brief:
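Streptococcus uberis ATCC 19436 was tested in Todd Hewitt Broth by broth microdilution in 96-well flat bottom plates, in biological triplicate. Overnight cells were diluted to OD600 of approximately 0.025, giving about 5×10^5 cfu/mL in the wells. Compounds were serially diluted two-fold to 200 μl, incubated 24 h at 37° C. and 200 rpm, and the MIC was taken from OD600.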

For the next assay, the system named is S. aureus ATCC 6538. Briefly: MIC by broth microdilution, S. aureus. Conditions: Staphylococcus aureus, read-out: S. aureus ATCC 6538 MIC. An outline of the steps: as §1
Where [1] appears, read: ATCC 10536 / ATCC 10596, No Zinc.
Setting [2] is: ATCC 10536 / ATCC 10596, Zinc (50 μM).

Consider `CN(C)Cc1ccc2cccc(NS(=O)(=O)c3cccc(Cl)c3Cl)c2n1` [ZDR336, 2,3-Dichloro-N-(2-((dimethylamino)methyl)quinolin-8-yl)benzenesulfonamide], for which the MIC in the assay on E. coli ATCC 10596 (setting [1]) was greater than 256 µg/mL; in the assay on E. coli ATCC 10596 (setting [2]) it was greater than 256 µg/mL; in the assay on S. uberis ATCC 19436 (ATCC19436, No Zinc) it was 64 µg/mL (≈ 156 µM); in the assay on S. uberis ATCC 19436 (ATCC19436, Zinc (50 μM)) it was 0.0625 µg/mL (≈ 0.152 µM); with S. aureus ATCC 6538 (ATCC6538, No Zinc), 64 µg/mL (≈ 156 µM); with S. aureus ATCC 6538 (ATCC6538, Zinc (50 μM)), 128 µg/mL (≈ 312 µM).
Take `CN(C)Cc1ccc2cccc(NS(=O)(=O)c3cc(F)c(F)cc3F)c2n1` [ZDR337, N-(2-((Dimethylamino)methyl)quinolin-8-yl)-2,4,5-trifluorobenzenesulfonamide]: the MIC in the assay with E. coli ATCC 10596 (setting [1]) is greater than 256 µg/mL; in the assay on E. coli ATCC 10596 (setting [2]) it was greater than 256 µg/mL; with S. uberis ATCC 19436 (ATCC19436, No Zinc), 256 µg/mL (≈ 647 µM); in the assay with S. uberis ATCC 19436 (ATCC19436, Zinc (50 μM)) it was 0.0625 µg/mL (≈ 0.158 µM); with S. aureus ATCC 6538 (ATCC6538, No Zinc) it was greater than 256 µg/mL; in the assay with S. aureus ATCC 6538 (ATCC6538, Zinc (50 μM)) it was greater than 256 µg/mL.
In the case of `CN(C)Cc1ccc2cccc(NS(=O)(=O)c3ccc(F)c(F)c3)c2n1` [ZDR338, N-(2-((Dimethylamino)methyl)quinolin-8-yl)-3,4-difluorobenzenesulfonamide], the minimal inhibitory concentration (MIC) was greater than 256 µg/mL in the assay with E. coli ATCC 10596 (setting [1]); greater than 256 µg/mL in the assay with E. coli ATCC 10596 (setting [2]); 128 µg/mL (≈ 339 µM) in the assay with S. uberis ATCC 19436 (ATCC19436, No Zinc); 0.0625 µg/mL (≈ 0.166 µM) in the assay with S. uberis ATCC 19436 (ATCC19436, Zinc (50 μM)); greater than 256 µg/mL in the assay on S. aureus ATCC 6538 (ATCC6538, No Zinc); greater than 256 µg/mL in the assay on S. aureus ATCC 6538 (ATCC6538, Zinc (50 μM)).
As for `CN(C)Cc1ccc2cccc(NS(=O)(=O)c3cccc4cnccc34)c2n1` [ZDR339, N-(2-((Dimethylamino)methyl)quinolin-8-yl)isoquinoline-5-sulfonamide], the minimal inhibitory concentration (MIC) with E. coli ATCC 10596 (setting [1]) was greater than 256 µg/mL; with E. coli ATCC 10596 (setting [2]), greater than 256 µg/mL; in the assay on S. uberis ATCC 19436 (ATCC19436, No Zinc) it was 256 µg/mL (≈ 652 µM); in the assay with S. uberis ATCC 19436 (ATCC19436, Zinc (50 μM)), 2 µg/mL (≈ 5.1 µM); in the assay on S. aureus ATCC 6538 (ATCC6538, No Zinc), greater than 256 µg/mL; in the assay on S. aureus ATCC 6538 (ATCC6538, Zinc (50 μM)), greater than 256 µg/mL.
Consider `CN(C)Cc1ccc2cccc(NS(=O)(=O)c3cccc4cccnc34)c2n1` [ZDR340, N-(2-((Dimethylamino)methyl)quinolin-8-yl)quinoline-8-sulfonamide], for which the minimal inhibitory concentration (MIC) is greater than 256 µg/mL in the assay with E. coli ATCC 10596 (setting [1]); greater than 256 µg/mL in the assay on E. coli ATCC 10596 (setting [2]); 64 µg/mL (≈ 163 µM) in the assay on S. uberis ATCC 19436 (ATCC19436, No Zinc); 0.25 µg/mL (≈ 0.637 µM) in the assay on S. uberis ATCC 19436 (ATCC19436, Zinc (50 μM)); greater than 256 µg/mL in the assay on S. aureus ATCC 6538 (ATCC6538, No Zinc); 32 µg/mL (≈ 81.5 µM) with S. aureus ATCC 6538 (ATCC6538, Zinc (50 μM)).
With `CCCCNCc1ccc2cccc(NS(=O)(=O)c3ccc(C(F)(F)F)cc3)c2n1` [ZDR401, N-(2-((Butylamino)methyl)quinolin-8-yl)-4-(trifluoromethyl)benzenesulfonamide], the MIC in the assay on E. coli ATCC 10596 (setting [1]) is 64 µg/mL (≈ 146 µM); in the assay with E. coli ATCC 10596 (setting [2]), greater than 256 µg/mL; with S. uberis ATCC 19436 (ATCC19436, No Zinc) it was 16 µg/mL (≈ 36.6 µM); with S. uberis ATCC 19436 (ATCC19436, Zinc (50 μM)), 0.125 µg/mL (≈ 0.286 µM); with S. aureus ATCC 6538 (ATCC6538, No Zinc), 32 µg/mL (≈ 73.1 µM); in the assay on S. aureus ATCC 6538 (ATCC6538, Zinc (50 μM)) it was 128 µg/mL (≈ 293 µM).
Consider `CCC(C)NCc1ccc2cccc(NS(=O)(=O)c3ccc(C(F)(F)F)cc3)c2n1` (stereo not drawn) [ZDR402, N-(2-((sec-Butylamino)methyl)quinolin-8-yl)-4-(trifluoromethyl)benzenesulfonamide], for which the minimum inhibitory concentration (MIC) in the assay with E. coli ATCC 10596 (setting [1]) was 256 µg/mL (≈ 585 µM); in the assay on E. coli ATCC 10596 (setting [2]), greater than 256 µg/mL; in the assay on S. uberis ATCC 19436 (ATCC19436, No Zinc), 16 µg/mL (≈ 36.6 µM); in the assay on S. uberis ATCC 19436 (ATCC19436, Zinc (50 μM)), 0.125 µg/mL (≈ 0.286 µM); with S. aureus ATCC 6538 (ATCC6538, No Zinc), 32 µg/mL (≈ 73.1 µM); in the assay on S. aureus ATCC 6538 (ATCC6538, Zinc (50 μM)) it was 128 µg/mL (≈ 293 µM).
For the compound `CC(C)CNCc1ccc2cccc(NS(=O)(=O)c3ccc(C(F)(F)F)cc3)c2n1` [ZDR403, N-(2-((Iso-Butylamino)methyl)quinolin-8-yl)-4-(trifluoromethyl)benzenesulfonamide], the minimum inhibitory concentration (MIC) in the assay on E. coli ATCC 10596 (setting [1]) is 64 µg/mL (≈ 146 µM); in the assay on E. coli ATCC 10596 (setting [2]) it was 256 µg/mL (≈ 585 µM); in the assay with S. uberis ATCC 19436 (ATCC19436, No Zinc), 16 µg/mL (≈ 36.6 µM); in the assay on S. uberis ATCC 19436 (ATCC19436, Zinc (50 μM)) it was 0.125 µg/mL (≈ 0.286 µM); in the assay with S. aureus ATCC 6538 (ATCC6538, No Zinc), 32 µg/mL (≈ 73.1 µM); in the assay on S. aureus ATCC 6538 (ATCC6538, Zinc (50 μM)), 128 µg/mL (≈ 293 µM).
For `O=S(=O)(Nc1cccc2ccc(CNC3CCCC3)nc12)c1ccc(C(F)(F)F)cc1` [ZDR404, N-(2-((Cyclopentylamino)methyl)quinolin-8-yl)-4-(trifluoromethyl)benzenesulfonamide], the minimum inhibitory concentration (MIC) in the assay on E. coli ATCC 10596 (setting [1]) was 128 µg/mL (≈ 285 µM); with E. coli ATCC 10596 (setting [2]), greater than 256 µg/mL; in the assay with S. uberis ATCC 19436 (ATCC19436, No Zinc), 16 µg/mL (≈ 35.6 µM); in the assay with S. uberis ATCC 19436 (ATCC19436, Zinc (50 μM)) it was 0.125 µg/mL (≈ 0.278 µM); in the assay on S. aureus ATCC 6538 (ATCC6538, No Zinc), 32 µg/mL (≈ 71.2 µM); in the assay with S. aureus ATCC 6538 (ATCC6538, Zinc (50 μM)), 256 µg/mL (≈ 570 µM).
For the compound `O=S(=O)(Nc1cccc2ccc(CNC3CCCCC3)nc12)c1ccc(C(F)(F)F)cc1` [ZDR405, N-(2-((Cyclohexylamino)methyl)quinolin-8-yl)-4-(trifluoromethyl)benzenesulfonamide], the MIC with E. coli ATCC 10596 (setting [1]) is 128 µg/mL (≈ 276 µM); with E. coli ATCC 10596 (setting [2]), greater than 256 µg/mL; in the assay on S. uberis ATCC 19436 (ATCC19436, No Zinc) it was 16 µg/mL (≈ 34.5 µM); with S. uberis ATCC 19436 (ATCC19436, Zinc (50 μM)) it was 0.125 µg/mL (≈ 0.27 µM); in the assay with S. aureus ATCC 6538 (ATCC6538, No Zinc) it was 64 µg/mL (≈ 138 µM); with S. aureus ATCC 6538 (ATCC6538, Zinc (50 μM)), 128 µg/mL (≈ 276 µM).

The record behind these values is patent US11691949B2, “Quinoline sulfonamide compounds and their use as antibacterial agents” (OTAGO INNOVATION LIMITED, priority 2017, dated 2023).
